Results: EP4644384A1 (Shanghai Lichun Biotech Co., Ltd., priority 2023, dated 2024)

Columns and labels:
[1] = Pharmacokinetic evaluation in ICR mice after intragastric administration (plasma, LC/MS/MS); type: in vivo; conditions: mouse, po, male ICR mice, i.g., 20 mg/kg; for AUC(0-t): read-out: Area under the curve AUC0-t; for half-life: read-out: Half-life T1/2 (converted); for Cmax: read-out: Plasma concentration Cmax
Method: Taking ICR mice as test animals, the drug concentration in plasma of ICR mice was determined by LC/MS/MS method at different times after intragastric administration (i.g.) with the compound of the present disclosure. The pharmacokinetic behavior of the compound of the present disclosure in ICR mice was studied and the pharmacokinetic characteristics thereof were evaluated.
27 male ICR mice were taken and randomly divided into three groups. The mice were provided by JOINN Laboratories (Suzhou) Co., Ltd. Before administration, the mice were fasted overnight for at least 12 hours. During the fasting and experiment, the drinking water was normal saline.
A certain amount of the compound to be tested was taken, and the test sample prepared with a final concentration of 2 mg/mL was taken for oral administration. The preparation solvent was 0.5% Tween 80 in a 0.5% methylcellulose aqueous solution. After the preparation was complete, a 1N hydrochloric acid aqueous solution was added for adjustment to a clear solution (pH 4-5).
The dosage was 20.0 mg/kg and the dosage volume was 10.0 ml/kg.
At 15 min, 30 min, 1 h, 2 h, 4 h, 6 h, 8 h, 10 h, and 24 h after administration, at least 0.2 mL was taken from the vein (3 animals at each time point) and placed in an EDTA-K2 anticoagulation test tube. The blood sample was collected and then placed in a labeled ice-water bath centrifuge tube, and the plasma was quickly separated by centrifugation. The centrifugation conditions were as follows: 4000 revolutions/minute, 10 minutes, and 4°C. The plasma was stored at -40°C or lower for later testing. Feed supply was resumed 4 hours after administration.
Determination of the content of the compound to be detected in the plasma of ICR mice: After the plasma sample was thawed at room temperature, 50 µL was taken and added to 300 µL of (200 ng/mL, acetonitrile, terfenadine) internal standard, the mixture was vortexed and uniformly mixed for 1 min and then centrifuged at 4°C at 15400 g for 10 min. The supernatant was taken and injected for LC/MS/MS analysis.
The main pharmacokinetic parameters, such as AUC, Cmax and t1/2, were calculated by non-compartmental analysis (NCA) method using WinNonlin software.

[2] = biological target: T1, CYP11A1 (Homo sapiens, UniProt P05108); test: Testosterone synthesis inhibition in NCI-H295R cells (testosterone ELISA of culture supernatant); type: cell-based; conditions: 24 hours incubation, testosterone in culture supernatant by ELISA
T1 construct: host or cells: NCI-H295R human adrenocortical cancer cells
T1 sequence (P05108 40-521): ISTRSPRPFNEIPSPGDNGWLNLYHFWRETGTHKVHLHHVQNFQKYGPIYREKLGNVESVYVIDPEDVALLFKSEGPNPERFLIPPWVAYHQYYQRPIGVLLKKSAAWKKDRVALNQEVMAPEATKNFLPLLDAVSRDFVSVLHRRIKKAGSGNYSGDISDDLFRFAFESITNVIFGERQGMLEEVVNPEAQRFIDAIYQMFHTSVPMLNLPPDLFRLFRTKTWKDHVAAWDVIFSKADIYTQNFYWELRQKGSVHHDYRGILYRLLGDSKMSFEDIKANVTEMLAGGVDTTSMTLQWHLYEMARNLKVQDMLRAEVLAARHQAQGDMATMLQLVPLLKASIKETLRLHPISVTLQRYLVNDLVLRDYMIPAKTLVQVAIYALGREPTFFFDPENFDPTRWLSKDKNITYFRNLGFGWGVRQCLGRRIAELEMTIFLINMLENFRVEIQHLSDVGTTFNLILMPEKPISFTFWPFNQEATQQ
Method: The ability of different compounds to inhibit testosterone biosynthesis was determined by detecting the concentration of testosterone (Abnova testosterone ELISA kit, KA6502) using enzyme-linked immunosorbent assay (ELISA), so as to detect the ability of the compounds to inhibit CYP11A1. In the experiment, similarly, the human adrenocortical cancer cell line NCI-H295R (Procell, CL-0399) was also used as an enzyme source. The compounds were added during NCI-H295R cell culture. After incubation, the concentration of testosterone in the culture supernatant was determined.
95 µl of NCI-H295R cells were taken and cultured overnight with a specialized cell culture medium (Procell, CM-0399) in a 96-well culture plate in a cell incubator at 37°C and 5% CO2. 5 µl/well of a DMSO (Sigma, D8418) solution of the compounds to be tested at different concentrations was then added, followed by continued incubation for 24 hours. The final concentrations of the compounds to be tested were 1000 nM, 333.33 nM, 111.11 nM, 37.04 nM, 12.35 nM, 4.12 nM, 1.37 nM, 0.46 nM, and 0 nM. After the incubation was complete, the cells were centrifuged, 80 µl/well of the cell culture supernatant was obtained, and the concentration of testosterone therein was determined by ELISA method. During ELISA detection, a testosterone standard was used to generate a standard curve. The experiment was carried out with replicate wells. The ELISA well plate had been coated with an anti-testosterone monoclonal antibody. In ELISA plate strips, 25 µl/well of the culture supernatant or standard solution or reference substance was added, followed by 200 µl of a testosterone-HRP complex solution, and the plate was incubated for 1 hour at room temperature on a plate shaker (QILINBEIER, QB-9002) at 200 rpm. Then, the plate was washed three times with a cleaning solution, with 300 µl each time, and patted dry on absorbent paper. 200 µl of a TMB substrate was added. The plate was incubated on the plate shaker for 15 minutes at room temperature, and 100 µl of a stop solution was then added. The absorbance was measured at 450 nm by a microplate reader (PerkinElmer, 2105). The IC50 value was calculated by using GraphPad Prism software. [formula]

[3] = biological target: T1, CYP11A1; test: Pregnenolone synthesis inhibition in NCI-H295R cells (pregnenolone ELISA of culture supernatant); type: cell-based; conditions: 24 hours incubation, pregnenolone in culture supernatant by ELISA
From the text: Conversion of cholesterol into pregnenolone is a first rate-limiting step in the synthesis of all steroid hormones in vertebrates. This conversion reaction involves a two-step continuous monooxygenation reaction catalyzed by the unique cytochrome P450scc (CYP11A) to produce C22-hydroxycholesterol and C20,C22-dihydroxycholesterol in order, followed by CYP11A1-catalyzed breakage of a C20-C22 carbon-carbon single bond in C20,C22-dihydroxycholesterol to produce one molecule of pregnenolone and one molecule of 4-methylvaleraldehyde. Therefore, the inhibitory effect of a compound on CYP11A1 was identified by detecting the ability of the compound to inhibit pregnenolone synthesis.
The ability of different compounds to inhibit pregnenolone biosynthesis was determined by detecting the concentration of pregnenolone (Abnova pregnenolone ELISA kit, KA1912) using enzyme-linked immunosorbent assay (ELISA), so as to detect the ability of the compounds to inhibit CYP11A1. […] In order to determine the half-maximal inhibitory concentrations (IC50) of CYP11A1 inhibition by different compounds, the compounds were added during NCI-H295R cell culture, and after incubation, the concentration of pregnenolone in the culture supernatant was determined.
95 µl of NCI-H295R cells were taken and cultured overnight with a specialized cell culture medium (Procell, CM-0399) in a 96-well culture plate in a cell incubator at 37°C and 5% CO2. 5 µl/well of a DMSO (Sigma, D8418) solution of the compounds to be tested at different concentrations was then added, followed by continued incubation for 24 hours. The final concentrations of the compounds to be tested were 1000 nM, 333.33 nM, 111.11 nM, 37.04 nM, 12.35 nM, 4.12 nM, 1.37 nM, 0.46 nM, and 0 nM. After the incubation was complete, the cells were centrifuged, 80 µl/well of the cell culture supernatant was obtained and 1 : 8 diluted with the cell culture medium, and the concentration of pregnenolone therein was then determined by ELISA method. During ELISA detection, a pregnenolone standard was used to generate a standard curve. The experiment was carried out with replicate wells. The ELISA well plate had been coated with an anti-pregnenolone rabbit polyclonal antibody. In ELISA plate strips, 50 µl/well of the diluted culture supernatant or standard solution or reference substance was added, followed by 100 µl of a pregnenolone-HRP complex solution, and the plate was incubated for 1 hour at room temperature on a plate shaker (QILINBEIER, QB-9002) at 200 rpm. Then, the plate was washed three times with a cleaning solution, with 300 µl each time, and patted dry on absorbent paper. 150 µl of a TMB substrate was added. The plate was incubated on the plate shaker for 10-15 minutes at room temperature, and 50 µl of a stop solution was then added. The absorbance was measured at 450 nm by a microplate reader (PerkinElmer, 2105). The IC50 value was calculated by using GraphPad Prism software. [formula]

Row | AUC(0-t) [1] [ng·h/mL] | half-life [1] [h] | Cmax [1] [ng/mL] | IC50 [2] [nM] | IC50 [3] [nM] | Compound
1 | 4330 | 1.87 | 7950 | – | – | CS(=O)(=O)N1CCC(COc2coc(CN3Cc4ccccc4C3)cc2=O)CC1 [Comparative Example 1, reference compound]
2 | 9950 | 0.708 | 9720 | 17.7 | 4.15 | Cn1c(CN2Cc3ccccc3C2)ccc(OCC2CCN(S(C)(=O)=O)CC2)c1=O [Compound 1, 6-(isoindolin-2-ylmethyl)-1-methyl-3-((1-(methylsulfonyl)piperidine-4-yl)methoxy)pyridin-2(1H)-one]
3 | – | – | – | 40.2 | 1.03 | [2H]C([2H])([2H])n1c(CN2Cc3ccccc3C2)ccc(OCC2CCN(S(=O)(=O)C(F)(F)F)CC2)c1=O [Compound 16, 6-(isoindolin-2-ylmethyl)-1-(methyl-d3)-3-((1-((trifluoromethyl)sulfonyl)piperidine-4-yl)methoxy)pyridin-2(1H)-one]
4 | – | – | – | 3.78 | 1.56 | CCn1c(CN2Cc3ccccc3C2)ccc(OCC2CCN(S(C)(=O)=O)CC2)c1=O [Compound 25, 1-ethyl-6-(isoindolin-2-ylmethyl)-3-((1-(methylsulfonyl)piperidine-4-yl)methoxy)pyridin-2(1H)-one]
5 | – | – | – | 2.45 | 0.7 | CCn1c(CN2Cc3ccccc3C2)ccc(OCC2CCN(S(=O)(=O)C3CC3)CC2)c1=O [Compound 26, 3-((1-(cyclopropylsulfonyl)piperidine-4-yl)methoxy)-1-ethyl-6-(isoindolin-2-ylmethyl)pyridin-2(1H)-one]
6 | 13600 | 1.22 | 5440 | 7.02 | 1.18 | CCn1c(CN2Cc3ccccc3C2)ccc(OCC2CCN(S(N)(=O)=O)CC2)c1=O [Compound 28, 4-(((1-ethyl-6-(isoindolin-2-ylmethyl)-2-oxo-1,2-dihydropyridin-3-yl)oxy)methyl)piperidine-1-sulfonamide]
7 | – | – | – | 4.04 | 0.648 | CCn1c(CN2Cc3ccccc3C2)ccc(OCC2CCN(S(=O)(=O)NS(N)(=O)=O)CC2)c1=O [Compound 30, 4-(((1-ethyl-6-(isoindolin-2-ylmethyl)-2-oxo-1,2-dihydropyridin-3-yl)oxy)methyl)-N-sulfamoylpiperidine-1-sulfonamide]
8 | – | – | – | > 1000 | – | CCn1c(CN2Cc3ccccc3C2)ccc(OCC2CCN(S(=O)(=O)O)CC2)c1=O [Compound 31, 4-(((1-ethyl-6-(isoindolin-2-ylmethyl)-2-oxo-1,2-dihydropyridin-3-yl)oxy)methyl)piperidine-1-sulfonic acid]
